Reference: patent publication US20100063070A1, “COMBINATION FOR USE IN THE TREATMENT OF INFLAMMATORY DISORDERS” (priority 2006, published 2010)

Assays:
[1] = tested on: human macrophage cell-line MonoMac-6 (MM6); assay: Inhibition of macrophage proliferation (WST-1 reagent); format: cell-based; details: 48 hours, n=5; for inhibition at 10 µM / inhibition at 30 µM / inhibition at 100 µM: Homo sapiens; for inhibition at 10 µM: MONO-MAC-6, 10 μM drug alone; for inhibition at 30 µM: MONO-MAC-6, 30 μM drug alone; for inhibition at 100 µM: MONO-MAC-6, 100 μM drug alone
Description: Cells from the human macrophage cell-line MonoMac-6 (MM6) (Ziegler-Heitbrock et al, Int. J. Cancer, 41, 456 (1988)) were cultured (37° C./5% CO2) in RPMI-1640 medium supplemented with 1 mM sodium pyruvate, 1× nonessential amino acids, 1-100 μg/mL insulin, 1 mM oxalacetic acid, 100 units/mL penicillin, 100 μg/mL streptomycin and 10% (v/v) fetal bovine serum. At the start of the experiment, MM6 cells were seeded in 96-well plates at a density of 1×10^5 cells/mL (100 μl per well). Proliferation of the MM6 cells was measured using the Cell Proliferation Reagent WST-1 (Roche Diagnostics Scandinavia AB, Bromma, Sweden) or by cell counting using a microscope. The WST-1 reagent is designed to be used for spectrophotometric quantification of e.g. cell growth in proliferation assays and was used according to the manufacturers' instructions. The wavelength for measuring absorbance was 450 nm and the absorbance of all untreated control cells exposed to the WST-1 reagent was between 1.0 and 2.5. Stock solutions of pemirolast (potassium salt; see Example 19 above) and rosuvastatin (sodium salt; see Example 19 above) were made in sterile saline.
Untreated MM6 cells increased from 1×10^5 cells/mL at the start of the experiment to 1.4×10^5±0.06×10^5 cells/mL and 2.3×10^5±0.10×10^5 cells/mL after 24 and 48 hours, respectively (mean values±sem, n=4 for each of the three time-points). The effects of pemirolast and/or rosuvastatin (added at the start of the experiments) on MM6 cell proliferation were studied 48 hours after start of the experiments using the WST-1 reagent described above.
The procedure described in Example 20 was repeated for atorvastatin (sodium salt; received as atorvastatin calcium as a gift from Biocon, Ltd., Bangalore, India and converted into sodium salt by firstly converting the calcium salt into the free acid by addition of aqueous hydrochloric acid and then, after isolation via extraction, adding one equivalent of aqueous NaOH).

[2] = tested on: zymosan-induced PMN leukocyte accumulation; assay: Zymosan-induced peritonitis in the mouse (PMN leukocytes in peritoneal lavage fluid); format: in vivo; details: NMRI mice; 5 hours after i.p. zymosan; pemirolast 0.5 mg i.p. with zymosan; atorvastatin sodium 0.35 mg 24 hours and 90 minutes before
Description: The atorvastatin injection was given 24 hours before zymosan was administered i.p. and the atorvastatin injection was given 90 minutes before zymosan was administered […]. Prior to injection, atorvastatin was dissolved at 1 mg/mL in sterile PBS using sonication and warming as needed. […] The number of polymorphonuclear (PMN) leukocytes per mL of lavage fluid was counted by light microscopy (using standard morphological criteria) following staining of nuclei with Tü's solution. Lavage fluid from non-inflamed peritoneal cavities from untreated animals provided baseline levels of PMN leukocytes.

[3] = tested on: bone marrow-derived cultured mouse mast cells (mMC); assay: Inhibition of mast cell interferon-γ formation (IgE-receptor cross-linking with TNP-BSA, Cytometric Bead Array); format: cell-based; details: for mean IFN-γ concentration in supernatants: mMC stimulated with TNP-BSA for 24 hours, n=2
Description: Bone marrow-derived cultured mouse mast cells (mMC) were obtained by culturing bone marrow cells from female C57BL/6 mice. The bone marrow cells (from mouse femurs flushed with PBS) were cultured (37° C./5% CO2) in 10% X-63 enriched conditioned RPMI 1640, supplemented with 10% heat-inactivated fetal bovine serum, 4 mM L-glutamine, 50 μM 2-mercaptoethanol, 1 mM sodium pyruvate, 0.1 mM non-essential amino acids, 10 mM Hepes, 100 units/mL penicillin and 100 μg/mL streptomycin. Development of mast cells was confirmed by toluidine blue staining. The experiments were performed after 6 to 8 weeks of culture. To activate the mMC through cross-linking of cell-surface IgE-receptors, the cultured mMC were initially sensitized for 90 minutes at 37° C. (5% CO2) with a monoclonal mouse anti-TNP IgE-antibody (IgE1-b4, ATCC, Rockville, Md., USA), used as a 15% hybridoma supernatant. Cells were then subjected to two washings with PBS and re-suspended in RPMI-1640 medium supplemented with 0.2% bovine serum albumin (BSA) before the cells (0.5 mL of medium with 1×10^6 cells per mL) were activated by addition of TNP-BSA (Biosearch Technologies, San Francisco, Calif.) with a coupling ratio of 9/1 (the final TNP-BSA concentration was 100 ng/mL). The incubation (37° C./5% CO2) with TNP-BSA was 24 hours. Before the incubation with TNP-BSA, some cells were treated/incubated (37° C./5% CO2) with the test drugs pemirolast (potassium salt purchased from American Custom Chemicals Corporation, San Diego, Calif., USA) and/or rosuvastatin (extracted and purified from commercially available Crestor® tablets and isolated as calcium salt as described in Bioorganic & Medicinal Chemistry, Vol. 5, No. 5, pp 437-444, 1997 by adding CaCl2) 30 minutes prior to addition of TNP-BSA (stock solutions of the drugs were made in sterile saline). For comparison, some experiments were performed without the drug treatments. After the incubations with TNP-BSA, the samples were centrifuged at 4° C. to spin down the cells and the supernatants analysed with regard to content of mouse IFN-γ using the BD™ Cytometric Bead Array (CBA) Mouse Inflammation Kit from BD Biosciences Pharmingen, San Diego, USA (the kit was used according to the manufacturer's instructions).

| Structure (SMILES) | inhibition at 10 µM [1] [%] | inhibition at 30 µM [1] [%] | inhibition at 100 µM [1] [%] | reduction of zymosan-induced PMN leukocyte accumulation compared with untreated animals [2] [%] | inhibition of MM6 proliferation ([1]; 10 μM drug alone) | mean IFN-γ concentration in supernatants ([3]; 3 μM drug alone) [µg/mL] | reduction of IFN-γ compared with the untreated cells ([3]; 30 μM drug alone, TNP-BSA 24 hours) | mean IFN-γ concentration in supernatants ([3]; 30 μM drug alone) [µg/mL] |
| --- | --- | --- | --- | --- | --- | --- | --- | --- |
| CC(C)c1c(C(=O)Nc2ccccc2)c(-c2ccccc2)c(-c2ccc(F)cc2)n1CC[C@@H](O)C[C@@H](O)CC(=O)O [atorvastatin] | 19.9 | 27 | 54.4 | 25.9 | – | – | – | – |
| Cc1cccn2c(=O)c(-c3nnn[nH]3)cnc12 [pemirolast] | – | – | 9.4 | 10.1 | very similar to that of 100 μM of pemirolast | 2.00 | about 3% | 1.74 |
| CC(C)c1nc(N(C)S(C)(=O)=O)nc(-c2ccc(F)cc2)c1/C=C/[C@@H](O)C[C@@H](O)CC(=O)O [rosuvastatin] | 16.6 | 22.7 | 66.9 | – | – | 2.26 | – | 1.88 |
